Values joined by “and” are separate entries in the source; they are usually repeats but may differ in a detail not shown here. Equal entries are not always repeated. Inconclusive results and toxic doses are left out. Rule for the calls: active = survival T/C of 150% or more; inactive = T/C below 125% in these data.
Tested on: P388 leukemia ip, CD2F1 mice, survival T/C
Assay: NCI In Vivo Anticancer Drug Screen. Data for tumor model P388 Leukemia (intraperitoneal) in CD2F1 (CDF1) mice
Conditions: endpoint: median survival time, higher = longer survival
Procedure, shortened: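 Mice carrying the transplanted tumor received test compound or vehicle. Survival was recorded in each group, and the value is the treated-group measurement divided by that of the vehicle-treated control group.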

[1] = dose: 25.0 mg/kg/injection, schedule: Q01DX009 (ip), vehicle: other
[2] = dose: 50.0 mg/kg/injection, schedule: Q01DX009 (ip), vehicle: other
[3] = dose: 100.0 mg/kg/injection, schedule: Q01DX009 (ip), vehicle: other
[4] = dose: 200.0 mg/kg/injection, schedule: Q01DX009 (ip), vehicle: other
[5] = dose: 50.0 mg/kg/injection, schedule: Q01DX005 (ip), vehicle: saline with Tween-80
[6] = dose: 100.0 mg/kg/injection, schedule: Q01DX005 (ip), vehicle: saline with Tween-80
[7] = dose: 50.0 mg/kg/injection, schedule: Q01DX009 (ip), vehicle: Klucel (hydroxypropylcellulose) (HPC)
[8] = dose: 100.0 mg/kg/injection, schedule: Q01DX009 (ip), vehicle: Klucel (hydroxypropylcellulose) (HPC)
[9] = dose: 200.0 mg/kg/injection, schedule: Q01DX009 (ip), vehicle: Klucel (hydroxypropylcellulose) (HPC)
[10] = dose: 100.0 mg/kg/injection, schedule: Q01DX001 (ip), vehicle: saline with Tween-80
[11] = dose: 200.0 mg/kg/injection, schedule: Q01DX001 (ip), vehicle: saline with Tween-80
[12] = dose: 25.0 mg/kg/injection, schedule: Q01DX009 (ip), vehicle: saline with Tween-80
[13] = dose: 50.0 mg/kg/injection, schedule: Q01DX009 (ip), vehicle: saline with Tween-80
[14] = dose: 100.0 mg/kg/injection, schedule: Q01DX009 (ip), vehicle: saline with Tween-80

Measured: T/C

C=CC[P+](CC)(c1ccccc1)c1ccccc1
inactive: dose: 0.78 mg/kg/injection, schedule: Q01DX009 (ip), vehicle: saline 95 % of control | dose: 1.56 mg/kg/injection, schedule: Q01DX009 (ip), vehicle: saline 88 % of control | dose: 3.13 mg/kg/injection, schedule: Q01DX009 (ip), vehicle: saline 93 % of control

CC(C)(CO)NC(=O)c1ccc(Br)cc1
inactive: [1] 100 % of control | [2] 100 % of control | [3] 104 % of control | [4] 100 % of control | dose: 400.0 mg/kg/injection, schedule: Q01DX009 (ip), vehicle: other 104 % of control

O=C1CN(CCN2CCCCC2)CC(=O)N2Cc3ccccc3CN12
inactive: dose: 12.5 mg/kg/injection, schedule: Q01DX005 (ip), vehicle: saline with Tween-80 102 % of control | dose: 25.0 mg/kg/injection, schedule: Q01DX005 (ip), vehicle: saline with Tween-80 104 % of control | [5] 100 % of control and 102 % of control

CC(C)(C)c1cc(Cc2ccccc2)c(O)c(C(C)(C)C)c1
inactive: dose: 50.0 mg/kg/injection, schedule: Q01DX005 (ip), vehicle: distilled water + alcohol 100 % of control | dose: 100.0 mg/kg/injection, schedule: Q01DX005 (ip), vehicle: distilled water + alcohol 103 % of control | dose: 200.0 mg/kg/injection, schedule: Q01DX005 (ip), vehicle: distilled water + alcohol 111 % of control

Cn1c(N)c2c(=O)n(C)c3c(c2c(C#N)c1=O)CCSc1ccccc1-3
inactive: [5] 94 % of control | [6] 93 % of control

O=C(CC(NO)c1ccccc1)NO (configuration not stated)
inactive: [7] 99 % of control | [8] 105 % of control | [9] 115 % of control

COC(=O)c1nnn(-c2ccc(S(N)(=O)=O)cc2)c1C(=O)c1ccc(Cl)c(Cl)c1
inactive: dose: 60.0 mg/kg/injection, schedule: Q01DX005 (ip), vehicle: saline with Tween-80 109 % of control | dose: 120.0 mg/kg/injection, schedule: Q01DX005 (ip), vehicle: saline with Tween-80 109 % of control | dose: 240.0 mg/kg/injection, schedule: Q01DX005 (ip), vehicle: saline with Tween-80 94 % of control

Cc1noc2nccnc12
inactive: dose: 25.0 mg/kg/injection, schedule: Q04DX003 (ip), vehicle: saline with Tween-80 100 % of control | dose: 50.0 mg/kg/injection, schedule: Q04DX003 (ip), vehicle: saline with Tween-80 91 % of control | dose: 100.0 mg/kg/injection, schedule: Q04DX003 (ip), vehicle: saline with Tween-80 91 % of control

O=c1cc(CC(O)c2ccccc2)c2ccccc2[nH]1 (configuration not stated)
inactive: dose: 100.0 mg/kg/injection, schedule: Q04DX002 (ip), vehicle: saline with Tween-80 95 % of control | dose: 200.0 mg/kg/injection, schedule: Q04DX002 (ip), vehicle: saline with Tween-80 94 % of control | dose: 400.0 mg/kg/injection, schedule: Q04DX002 (ip), vehicle: saline with Tween-80 91 % of control

Cc1ccccc1OC(=O)Nc1ccc(C(=O)O)c(O)c1
inactive: [10] 95 % of control | [11] 109 % of control

COCC(=O)Oc1ccc[nH]c1=O
inactive: dose: 12.5 mg/kg/injection, schedule: Q01DX009 (ip), vehicle: saline 101 % of control and 113 % of control | dose: 25.0 mg/kg/injection, schedule: Q01DX009 (ip), vehicle: saline 103 % of control and 107 % of control | dose: 50.0 mg/kg/injection, schedule: Q01DX009 (ip), vehicle: saline 100 % of control and 106 % of control | dose: 100.0 mg/kg/injection, schedule: Q01DX009 (ip), vehicle: saline 106 % of control and 113 % of control | dose: 200.0 mg/kg/injection, schedule: Q01DX009 (ip), vehicle: saline 100 % of control and 103 % of control

CCOC(=O)C(NC(=O)OC(C)(C)C)C(C)C (configuration not stated)
inactive: [5] 98 % of control | [6] 100 % of control | dose: 200.0 mg/kg/injection, schedule: Q01DX005 (ip), vehicle: saline with Tween-80 100 % of control

NCC1=NCCN1
inactive: dose: 60.0 mg/kg/injection, schedule: Q01DX005 (ip), vehicle: saline 92 % of control | dose: 120.0 mg/kg/injection, schedule: Q01DX005 (ip), vehicle: saline 99 % of control | dose: 240.0 mg/kg/injection, schedule: Q01DX005 (ip), vehicle: saline 94 % of control

CO[C@H]1/C=C/O[C@@]2(C)Oc3c(C)c(O)c4c(O)c(c(/C=N/N5CCN(C)CC5)c(O)c4c3C2=O)NC(=O)/C(C)=C\C=C\[C@H](C)[C@H](O)[C@@H](C)[C@@H](O)[C@@H](C)[C@H](OC(C)=O)[C@@H]1C
inactive: [1] 92 % of control | [12] 100 % of control | dose: 25.0 mg/kg/injection, schedule: Q04DX003 (ip), vehicle: distilled water + Tween-80 106 % of control | dose: 25.0 mg/kg/injection, schedule: Q04DX003 (ip), vehicle: other 99 % of control and 97 % of control | [2] 98 % of control | [13] 100 % of control | dose: 50.0 mg/kg/injection, schedule: Q04DX003 (ip), vehicle: distilled water + Tween-80 105 % of control and 110 % of control | dose: 50.0 mg/kg/injection, schedule: Q04DX003 (ip), vehicle: other 106 % of control and 109 % of control | [3] 89 % of control | [14] 100 % of control | dose: 100.0 mg/kg/injection, schedule: Q04DX003 (ip), vehicle: distilled water + Tween-80 96 % of control and 97 % of control | dose: 100.0 mg/kg/injection, schedule: Q04DX003 (ip), vehicle: other 107 % of control and 115 % of control | dose: 100.0 mg/kg/injection, schedule: Q04DX003 (ip), vehicle: saline sonified 95 % of control | [4] 107 % of control | dose: 200.0 mg/kg/injection, schedule: Q04DX003 (ip), vehicle: distilled water + Tween-80 106 % of control | dose: 200.0 mg/kg/injection, schedule: Q04DX003 (ip), vehicle: other 110 % of control | dose: 200.0 mg/kg/injection, schedule: Q04DX003 (ip), vehicle: saline sonified 104 % of control | dose: 400.0 mg/kg/injection, schedule: Q04DX003 (ip), vehicle: distilled water + Tween-80 103 % of control | dose: 400.0 mg/kg/injection, schedule: Q04DX003 (ip), vehicle: saline sonified 109 % of control

CS(=O)(=O)/C=C/c1cccnc1
inactive: [7] 101 % of control | [8] 99 % of control | [9] 103 % of control

COc1cc(C(O)C(CO)Oc2c(OC)cc(C3OCC4C(c5cc(OC)c(O)c(OC)c5)OCC34)cc2OC)ccc1O (configuration not stated)
inactive: dose: 5.0 mg/kg/injection, schedule: Q01DX005 (ip), vehicle: sodium bicarbonate 107 % of control | dose: 10.0 mg/kg/injection, schedule: Q01DX005 (ip), vehicle: sodium bicarbonate 109 % of control | dose: 20.0 mg/kg/injection, schedule: Q01DX005 (ip), vehicle: sodium bicarbonate 106 % of control | dose: 40.0 mg/kg/injection, schedule: Q01DX005 (ip), vehicle: sodium bicarbonate 100 % of control

Cc1ccc(C2(C)OC(CCl)CS2)c(C)c1 (configuration not stated)
inactive: [12] 101 % of control and 98 % of control | [13] 104 % of control and 98 % of control | [14] 105 % of control | dose: 200.0 mg/kg/injection, schedule: Q01DX009 (ip), vehicle: saline with Tween-80 107 % of control and 119 % of control

CC1=C(Cl)C(=N\S(=O)(=O)c2ccccc2)/c2ccccc2/C1=N/S(=O)(=O)c1ccccc1
inactive: [10] 95 % of control | [11] 95 % of control

COc1cc(C2c3cc(O)c(OC)cc3CC3C(=O)OCC32)ccc1O (configuration not stated)
inactive: dose: 50.0 mg/kg/injection, schedule: Q01DX005 (ip), vehicle: Klucel (hydroxypropylcellulose) (HPC) 95 % of control | dose: 100.0 mg/kg/injection, schedule: Q01DX005 (ip), vehicle: Klucel (hydroxypropylcellulose) (HPC) 95 % of control | dose: 200.0 mg/kg/injection, schedule: Q01DX005 (ip), vehicle: Klucel (hydroxypropylcellulose) (HPC) 90 % of control

CSc1n[nH]c(-c2cccs2)n1
inactive: dose: 60.0 mg/kg/injection, schedule: Q01DX005 (ip), vehicle: Klucel (hydroxypropylcellulose) (HPC) 104 % of control | dose: 120.0 mg/kg/injection, schedule: Q01DX005 (ip), vehicle: Klucel (hydroxypropylcellulose) (HPC) 105 % of control

CC(=O)C(O)N1C(=O)C=CC1=O (configuration not stated)
inactive: dose: 2.5 mg/kg/injection, schedule: Q01DX009 (ip), vehicle: saline with Tween-80 86 % of control | dose: 2.5 mg/kg/injection, schedule: Q04DX003 (ip), vehicle: saline 100 % of control | dose: 5.0 mg/kg/injection, schedule: Q04DX003 (ip), vehicle: saline 95 % of control | dose: 10.0 mg/kg/injection, schedule: Q04DX003 (ip), vehicle: saline 100 % of control

Source: PubChem BioAssay AID330 (DTP/NCI, 2004)
